Laboratory results published in ChEMBL document CHEMBL4373709 (J Med Chem, 2019).
Activity calls are given as the source filed them. The rule behind the calls is not given here.

Experiments:
[1] = biological target: Neurotensin receptor type 2 (Homo sapiens) (UniProt O95665); assay: Allosteric modulation of NTR2 (unknown origin) assessed as induction of NT (8 to 13) peptide-mediated beta-arrestin recruitment at >80 uM by pathhunter assay
[2] = biological target: T1, Neurotensin receptor type 1 (Homo sapiens, UniProt P30989); assay: Allosteric modulation of human GFP-fused PK-tagged Gq-coupled NTR1 expressed in CHOK1 cells assessed as induction of NT (8 to 13) peptide-mediated beta-arrestin recruitment measured after 90 mins by pathhunter assay; type: cell-based
T1 sequence (P30989 whole entry, the tested form may be a part): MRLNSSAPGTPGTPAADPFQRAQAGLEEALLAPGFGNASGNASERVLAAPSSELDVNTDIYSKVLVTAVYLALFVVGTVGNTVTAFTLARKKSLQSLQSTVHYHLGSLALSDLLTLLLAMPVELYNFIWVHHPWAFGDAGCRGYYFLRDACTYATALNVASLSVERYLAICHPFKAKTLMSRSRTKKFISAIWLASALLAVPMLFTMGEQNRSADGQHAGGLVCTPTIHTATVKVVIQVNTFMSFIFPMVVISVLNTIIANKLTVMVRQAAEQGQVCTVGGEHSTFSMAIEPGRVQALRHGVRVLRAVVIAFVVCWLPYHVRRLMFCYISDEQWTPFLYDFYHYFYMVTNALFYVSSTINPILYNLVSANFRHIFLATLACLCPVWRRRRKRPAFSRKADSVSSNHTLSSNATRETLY

[3] = biological target: T1, Neurotensin receptor type 1; assay: Allosteric modulation of human GFP-fused PK-tagged Gq-coupled NTR1 expressed in CHOK1 cells assessed as induction of NT (8 to 13) peptide-mediated beta-arrestin recruitment measured after 90 mins by pathhunter assay relative to NT (8 to 13) peptide; type: cell-based
[4] = biological target: T2, Alpha-2A adrenergic receptor (Homo sapiens) (UniProt P08913); assay: Binding affinity to alpha2A adrenoceptor (unknown origin) at 5 uM relative to control
T2 sequence (whole entry): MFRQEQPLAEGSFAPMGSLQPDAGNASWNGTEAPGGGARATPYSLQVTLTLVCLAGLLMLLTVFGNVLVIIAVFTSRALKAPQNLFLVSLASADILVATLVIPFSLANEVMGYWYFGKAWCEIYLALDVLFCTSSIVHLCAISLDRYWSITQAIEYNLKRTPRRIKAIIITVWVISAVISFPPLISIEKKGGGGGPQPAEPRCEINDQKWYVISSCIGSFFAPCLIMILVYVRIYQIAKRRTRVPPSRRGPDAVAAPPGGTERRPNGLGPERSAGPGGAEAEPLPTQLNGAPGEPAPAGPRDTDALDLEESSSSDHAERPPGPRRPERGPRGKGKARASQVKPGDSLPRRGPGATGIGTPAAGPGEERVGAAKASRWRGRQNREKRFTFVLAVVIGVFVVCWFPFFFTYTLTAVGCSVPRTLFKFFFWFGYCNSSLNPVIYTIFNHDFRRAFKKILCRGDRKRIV

[5] = tested on: Mus musculus; assay: Suppression of hyperlocomotion in DAT knockout C57BL/6J mouse assessed as reduction in total distance traveled at 10 to 100 mg/kg, po measured up to 2 hrs by open field test; type: functional, organism-based
[6] = biological target: Histamine H1 receptor (Homo sapiens) (UniProt P35367); assay: Binding affinity to H1R (unknown origin) at 5 uM relative to control
Sequence of Histamine H1 receptor (Homo sapiens) (P35367 whole entry, the tested form may be a part): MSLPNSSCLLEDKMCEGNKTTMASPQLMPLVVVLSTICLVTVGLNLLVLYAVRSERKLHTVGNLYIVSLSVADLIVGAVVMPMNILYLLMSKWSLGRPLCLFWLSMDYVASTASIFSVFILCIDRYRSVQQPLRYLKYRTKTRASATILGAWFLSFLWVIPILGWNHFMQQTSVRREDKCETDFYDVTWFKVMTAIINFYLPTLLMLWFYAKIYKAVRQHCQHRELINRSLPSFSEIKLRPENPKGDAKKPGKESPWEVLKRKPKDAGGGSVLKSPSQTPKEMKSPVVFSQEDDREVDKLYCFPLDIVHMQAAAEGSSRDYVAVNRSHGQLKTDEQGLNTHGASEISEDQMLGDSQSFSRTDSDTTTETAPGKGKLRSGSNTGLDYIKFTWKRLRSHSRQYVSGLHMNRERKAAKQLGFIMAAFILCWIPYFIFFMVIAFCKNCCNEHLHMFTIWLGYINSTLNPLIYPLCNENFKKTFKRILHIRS

[7] = biological target: T1, Neurotensin receptor type 1; assay: Allosteric modulation of human GFP-fused PK-tagged Gq-coupled NTR1 expressed in CHOK1 cells assessed as induction of NT (8 to 13) peptide-mediated beta-arrestin recruitment at 0.5 to 356 nM measured after 90 mins by pathhunter assay; type: cell-based
[8] = biological target: Neurotensin receptor type 2 (Homo sapiens) (UniProt O95665); assay: Positive allosteric modulation of recombinant human NTR2 expressed in HEK293 cells assessed as increase in [125I]-neurotensin binding measured after 3 hrs; type: cell-based
[9] = tested on: Mus musculus; assay: Suppression of hyperlocomotion in DAT knockout C57BL/6J mouse assessed as reduction in total distance traveled at 12 mg/kg, ip measured up to 2 hrs by open field test; type: functional, organism-based
[10] = biological target: G-protein coupled receptor 55 (Homo sapiens) (UniProt Q9Y2T6); assay: Allosteric modulation of human PK-tagged Gq-coupled GPR55 expressed in CHOK1 cells assessed as induction of L-alpha-Lysophosphatidylinositol-mediated beta-arrestin recruitment by pathhunter assay; type: functional, cell-based
Sequence of G-protein coupled receptor 55 (Homo sapiens) (Q9Y2T6 whole entry): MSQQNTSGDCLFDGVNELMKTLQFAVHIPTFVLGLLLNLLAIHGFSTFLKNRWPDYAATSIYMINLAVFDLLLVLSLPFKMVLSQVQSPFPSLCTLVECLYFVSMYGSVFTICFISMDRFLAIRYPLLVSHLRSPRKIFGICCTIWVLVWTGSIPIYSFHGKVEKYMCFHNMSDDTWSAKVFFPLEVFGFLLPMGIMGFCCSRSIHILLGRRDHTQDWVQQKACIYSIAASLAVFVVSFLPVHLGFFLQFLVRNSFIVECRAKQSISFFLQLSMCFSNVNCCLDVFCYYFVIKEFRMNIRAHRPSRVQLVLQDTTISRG

[11] = biological target: Neurotensin receptor type 1 (Mus musculus) (UniProt O88319); assay: Positive allosteric modulation of NTR1 in ICR mouse brain assessed as increase in [125I]-neurotensin binding measured after 20 mins; type: tissue-based
Sequence of Neurotensin receptor type 1 (Mus musculus) (O88319 whole entry): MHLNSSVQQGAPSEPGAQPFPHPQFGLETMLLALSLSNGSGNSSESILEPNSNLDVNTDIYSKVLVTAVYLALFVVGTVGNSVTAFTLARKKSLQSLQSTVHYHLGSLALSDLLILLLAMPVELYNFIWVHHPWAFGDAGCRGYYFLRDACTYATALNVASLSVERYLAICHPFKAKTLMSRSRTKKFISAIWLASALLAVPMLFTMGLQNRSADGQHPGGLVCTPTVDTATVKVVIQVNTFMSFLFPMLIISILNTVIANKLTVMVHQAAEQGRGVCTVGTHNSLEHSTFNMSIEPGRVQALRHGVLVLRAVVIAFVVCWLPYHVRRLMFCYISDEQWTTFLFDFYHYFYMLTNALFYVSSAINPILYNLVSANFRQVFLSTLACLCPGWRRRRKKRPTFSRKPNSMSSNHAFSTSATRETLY

[12] = biological target: G-protein coupled receptor 35 (Homo sapiens) (UniProt Q9HC97); assay: Allosteric modulation of human PK-tagged Gi/Go-coupled GPR35 expressed in CHOK1 cells assessed as induction of zaprinast-mediated beta-arrestin recruitment by pathhunter assay; type: cell-based
Sequence of G-protein coupled receptor 35 (Homo sapiens) (Q9HC97 whole entry): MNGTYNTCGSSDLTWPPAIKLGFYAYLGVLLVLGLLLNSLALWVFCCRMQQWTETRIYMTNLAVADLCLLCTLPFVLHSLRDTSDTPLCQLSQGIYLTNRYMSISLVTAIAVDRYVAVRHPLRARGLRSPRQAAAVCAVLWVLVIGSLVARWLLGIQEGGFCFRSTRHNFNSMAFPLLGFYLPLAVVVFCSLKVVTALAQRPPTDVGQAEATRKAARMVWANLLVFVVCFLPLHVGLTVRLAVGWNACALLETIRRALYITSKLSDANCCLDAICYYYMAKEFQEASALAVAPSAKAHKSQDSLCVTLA

[13] = biological target: T1, Neurotensin receptor type 1; assay: Positive allosteric modulation of recombinant human NTR1 expressed in HEK293 cells assessed as increase in [125I]-neurotensin binding measured after 45 mins relative to control; type: cell-based
[14] = biological target: 5-hydroxytryptamine receptor 2B (Homo sapiens) (UniProt P41595); assay: Binding affinity to 5HT2B (unknown origin) at 5 uM relative to control
Sequence of 5-hydroxytryptamine receptor 2B (Homo sapiens) (P41595 whole entry): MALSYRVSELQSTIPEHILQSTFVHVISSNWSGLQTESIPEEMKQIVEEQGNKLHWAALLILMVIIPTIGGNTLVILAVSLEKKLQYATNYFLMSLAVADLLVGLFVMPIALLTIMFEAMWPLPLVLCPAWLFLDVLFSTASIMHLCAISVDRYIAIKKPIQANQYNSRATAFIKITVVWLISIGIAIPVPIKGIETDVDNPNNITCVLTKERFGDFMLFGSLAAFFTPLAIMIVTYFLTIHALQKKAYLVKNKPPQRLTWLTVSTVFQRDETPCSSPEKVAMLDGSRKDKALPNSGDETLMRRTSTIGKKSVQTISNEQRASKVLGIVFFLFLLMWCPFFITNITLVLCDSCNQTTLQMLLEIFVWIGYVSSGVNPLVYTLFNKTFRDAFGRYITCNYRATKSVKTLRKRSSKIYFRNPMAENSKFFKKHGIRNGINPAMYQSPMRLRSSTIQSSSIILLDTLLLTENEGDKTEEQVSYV

[15] = biological target: D(1A) dopamine receptor (Homo sapiens) (UniProt P21728); assay: Binding affinity to D1R (unknown origin) at 5 uM relative to control
Sequence of D(1A) dopamine receptor (Homo sapiens) (P21728 whole entry): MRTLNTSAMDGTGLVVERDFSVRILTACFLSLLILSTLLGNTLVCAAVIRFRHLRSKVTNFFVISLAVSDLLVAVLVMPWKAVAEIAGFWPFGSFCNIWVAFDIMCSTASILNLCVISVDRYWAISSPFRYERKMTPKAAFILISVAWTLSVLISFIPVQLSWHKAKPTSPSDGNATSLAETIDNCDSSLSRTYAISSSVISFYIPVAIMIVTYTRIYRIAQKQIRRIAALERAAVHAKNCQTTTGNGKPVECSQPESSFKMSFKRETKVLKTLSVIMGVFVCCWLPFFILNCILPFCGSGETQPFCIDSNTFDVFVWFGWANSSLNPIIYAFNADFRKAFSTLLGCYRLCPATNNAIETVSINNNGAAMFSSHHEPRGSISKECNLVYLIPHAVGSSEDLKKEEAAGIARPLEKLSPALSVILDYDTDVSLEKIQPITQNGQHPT

[16] = biological target: Kappa-type opioid receptor (Homo sapiens) (UniProt P41145); assay: Allosteric modulation of human PK-tagged Gi/Go-coupled KOR expressed in CHOK1 cells assessed as induction of dynorphin A-mediated beta-arrestin recruitment by pathhunter assay; type: cell-based
Sequence of Kappa-type opioid receptor (Homo sapiens) (P41145 whole entry): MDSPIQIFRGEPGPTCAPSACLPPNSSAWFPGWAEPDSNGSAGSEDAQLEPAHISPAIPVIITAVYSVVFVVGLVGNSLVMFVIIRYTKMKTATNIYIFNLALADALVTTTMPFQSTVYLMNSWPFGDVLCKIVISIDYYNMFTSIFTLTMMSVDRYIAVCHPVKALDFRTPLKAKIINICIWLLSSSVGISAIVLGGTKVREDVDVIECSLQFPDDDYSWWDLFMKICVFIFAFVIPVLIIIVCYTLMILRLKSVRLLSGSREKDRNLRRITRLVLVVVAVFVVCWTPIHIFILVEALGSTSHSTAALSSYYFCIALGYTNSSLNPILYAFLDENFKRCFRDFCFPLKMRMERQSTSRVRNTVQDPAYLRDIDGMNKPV

[17] = biological target: T1, Neurotensin receptor type 1; assay: Agonist activity at NTR1 (unknown origin) expressed in CHO cells assessed as effect on calcium flux by Fluo-4 NW calcium dye based fluorescence assay; type: functional, cell-based

Sequence of Neurotensin receptor type 2 (Homo sapiens) (O95665 whole entry, the tested form may be a part): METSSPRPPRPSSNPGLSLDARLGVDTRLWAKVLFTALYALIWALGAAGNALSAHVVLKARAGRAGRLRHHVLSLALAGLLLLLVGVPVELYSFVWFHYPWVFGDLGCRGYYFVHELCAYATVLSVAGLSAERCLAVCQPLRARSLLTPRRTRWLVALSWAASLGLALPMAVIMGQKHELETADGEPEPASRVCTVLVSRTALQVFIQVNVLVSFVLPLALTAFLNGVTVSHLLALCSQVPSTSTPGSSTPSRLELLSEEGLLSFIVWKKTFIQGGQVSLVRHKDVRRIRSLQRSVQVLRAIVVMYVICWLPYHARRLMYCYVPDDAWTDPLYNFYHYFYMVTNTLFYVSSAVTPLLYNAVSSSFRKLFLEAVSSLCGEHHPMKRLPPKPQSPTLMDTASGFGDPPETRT

| SMILES | Activity [1] | EC50 [2] [nM] | Emax [3] [%] | other results |
| --- | --- | --- | --- | --- |
| COc1ccccc1C1CCN(c2nc(C3CC3)nc3ccc(N4CC[C@@H](OC)C4)cc23)CC1 | inactive | 640 | 93 | – |
| COc1ccccc1C1CCN(c2nc(C3(C)CC3)nc3ccc(N(C)CCO)cc23)CC1 | inactive | – | 90 | – |
| COc1ccccc1C1CCN(c2nc(C3(C)CC3)nc3ccc(N(C)CCN4CCOCC4)cc23)CC1 | inactive | 3360 | 71 | – |
| COCCN(C)c1ccc2nc(C3(F)CC3)nc(N3CCC(c4ccccc4OC)CC3)c2c1 | inactive | 1060 | 86 | – |
| CCCN(C)c1cc2c(N3CCC(c4ccccc4OC)CC3)nc(C3CC3)nc2cc1F | inactive | 3010 | 68 | – |
| COc1ccccc1C1CCN(c2nc(C3(F)CC3)nc3ccc(N(C)CCO)cc23)CC1 | inactive | – | 100 | Activity [4]: 55%; Activity [5]: Active; Activity [6]: 75%; Activity [7]: inactive; Activity [8]: inactive; Activity [9]: Active; Activity [10]: inactive; Activity [11]: Active; Activity [12]: inactive; Emax [13]: 140%; Activity [14]: 42%; Activity [15]: 36%; Activity [16]: inactive; Activity [17]: inactive |
| COc1ccccc1C1CCN(c2nc(C3(F)CCC3)nc3ccc(N(C)CCO)cc23)CC1 | inactive | 270 | 96 | – |
| CCN(C)c1cccc2nc(C3CC3)nc(N3CCC(c4ccccc4OC)CC3)c12 | inactive | 6710 | 60 | – |
| COc1cc2nc(C3CC3)nc(N3CCN(c4ccccc4OC)CC3)c2cc1OC | inactive | 2870 | – | Activity [10]: inactive; Activity [12]: inactive; Activity [16]: inactive; Activity [17]: inactive |
| COc1cc2nc(C3CC3)nc(C3CCN(c4ccccc4OC)CC3)c2cc1OC | inactive | > 20000 | – | – |
| CCCN(C)c1cc2c(N3CCC(c4ccccc4OC)CC3)nc(C3CC3)nc2cc1C | inactive | 990 | 86 | – |
| COc1ccccc1C1CCN(c2nc(C3CC3)nc3ccc(N(C)C)cc23)CC1 | inactive | 888 | 89 | – |
| COc1ccccc1C1CCN(c2nc(-c3ccccc3)nc3ccc(N(C)CCO)cc23)CC1 | inactive | 4230 | 70 | – |
| COc1ccccc1C1CCN(c2nc(C3(C(F)(F)F)CC3)nc3ccc(N(C)CCO)cc23)CC1 | inactive | 340 | 94 | – |
| COc1cc2nc(C3CC3)nc(N3CCC(c4ccccc4OC)CC3)c2cc1OC | inactive | 1040 | 89 | – |
| COc1ccccc1C1CCN(c2nc(C3CC3)nc3ccc(N4CC[C@@H](O)C4)cc23)CC1 | inactive | 440 | 79 | – |
| COCCN(C)c1ccc2nc(C3(C)CC3)nc(N3CCC(c4ccccc4OC)CC3)c2c1 | inactive | 2230 | 60 | – |
| COc1ccccc1C1CCN(c2nc(C3CC3)nc3ccc(N4CC[C@H](O)C4)cc23)CC1 | inactive | 1010 | 78 | – |
| CCCN(C)c1ccc2nc(C3(F)CC3)nc(N3CCC(c4ccccc4OC)CC3)c2c1 | inactive | 1450 | 80 | – |
| COc1ccccc1C1CCN(c2nc(C3CC3)nc3ccc(N4CCC(O)CC4)cc23)CC1 | inactive | 6720 | 82 | – |
| COc1ccccc1C1CCN(c2nc(C3(C)CCC3)nc3ccc(N(C)CCO)cc23)CC1 | inactive | 1480 | 75 | – |
| COc1ccccc1N1CCN(c2nc(C3CC3)nc3ccc(N(C)C)cc23)CC1 | – | 710 | – | – |
| COc1ccccc1C1CCN(c2nc(C3(C(F)(F)F)CC3)nc3ccc(N(C)CCN4CCOCC4)cc23)CC1 | inactive | 3810 | 78 | – |
| COc1ccccc1C1CCN(c2nc(C3CC3)nc3ccc(N4CC[C@H](OC)C4)cc23)CC1 | inactive | 810 | 82 | – |
| COc1ccccc1C1CCN(c2nc(C3(F)CC3)nc3ccc(N(C)CCN4CCOCC4)cc23)CC1 | inactive | 1720 | 97 | – |
| COc1ccccc1C1CCN(c2nc(C3CC3)nc3ccc(N4CCC(OC)CC4)cc23)CC1 | inactive | 2780 | 79 | – |
| COc1ccccc1C1CCN(c2nc(C3(F)CC3)nc3ccc(N(C)C)cc23)CC1 | inactive | 920 | 84 | – |
| COc1ccccc1C1CCN(c2nc(C3CC3)nc3ccc(N(C)CCN4CCOCC4)cc23)CC1 | inactive | 810 | 92 | – |

Continued, in another order:

| Activity [1] | EC50 [2] [nM] | Emax [3] [%] | SMILES | other results |
| --- | --- | --- | --- | --- |
| inactive | 500 | 91 | COc1ccccc1C1CCN(c2nc(C3CC3)nc3ccc(N(C)CCO)c(Cl)c23)CC1 | – |
| inactive | 590 | 95 | COc1ccccc1C1CCN(c2nc(C3CC3)nc3ccc(N(C)CCO)c(F)c23)CC1 | – |
| inactive | 600 | 98 | COc1ccccc1C1CCN(c2nc(C3CC3)nc3cc(Cl)c(N(C)CCO)cc23)CC1 | – |
| inactive | 3880 | 78 | COc1ccccc1C1CCN(c2nc(C3CCCC3)nc3ccc(N(C)CCO)cc23)CC1 | – |
| inactive | 10000 | 86 | CCCN(C)c1ccc2c(N3CCC(c4ccccc4OC)CC3)nc(C3CC3)nc2c1 | – |
| inactive | 560 | 80 | CCN(C)c1ccc2nc(C3CC3)nc(N3CCC(c4ccccc4OC)CC3)c2c1 | – |
| inactive | 1050 | 80 | COc1ccccc1C1CCN(c2nc(C3CCC3)nc3ccc(N(C)CCO)cc23)CC1 | – |
| inactive | 160 | 87 | COc1ccccc1C1CCN(c2nc(C3CC3)nc3c(C)cc(N(C)CCO)cc23)CC1 | – |
| inactive | 160 | 100 | COc1ccccc1C1CCN(c2nc(C3CC3)nc3c(F)cc(N(C)CCO)cc23)CC1 | – |
| inactive | 1120 | 79 | COCCN(C)c1ccc2nc(C3CC3)nc(N3CCC(c4ccccc4OC)CC3)c2c1 | – |
| inactive | 220 | 95 | COc1ccccc1C1CCN(c2nc(C3CC3)nc3c(Cl)cc(N(C)CCO)cc23)CC1 | – |
| inactive | 560 | 88 | COc1ccccc1C1CCN(c2nc(C3CC3)nc3cc(C)c(N(C)CCO)cc23)CC1 | – |
| inactive | 478 | 92 | COc1ccccc1C1CCN(c2nc(C3CC3)nc3ccc(N(C)CCO)cc23)CC1 | – |
| inactive | 1260 | 93 | COc1ccccc1C1CCN(c2nc(C3CC3)nc3ccc(N(C)CCO)c(C)c23)CC1 | – |
| inactive | 732 | 68 | CCCN(C)c1ccc2nc(C3CC3)nc(N3CCC(c4ccccc4OC)CC3)c2c1 | – |
